Test results taken from patent US20250215029A1 (Recludix Pharma, Inc., priority 2022, published 2025).

The compounds below were run against T1, pY705-STAT3 in PBMC (Homo sapiens, UniProt P40763) (assay: MSD-pSTAT-PBMC Assay (pSTAT3, IL-6 stimulated)). Conditions: PBMC, compound 3 hrs, then 10 ng/mL IL-6 for 10 min; Table 115; read-out: STAT3.
T1 construct: Cryopreserved Peripheral Blood Mononuclear Cells (PBMC) are from AllCells; host or cells: cryopreserved PBMC
Type: cell-based
Outline: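 Cells are preincubated with compound for 3 hrs, then stimulated for 10 min, IL-4 at 1 ng/mL driving STAT6 phosphorylation and IL-6 at 10 ng/mL driving STAT3. Phospho-STAT in lysates is quantified by MSD immunoassay, and IC50 is fitted after subtracting unstimulated wells.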

T1 sequence (P40763 whole entry): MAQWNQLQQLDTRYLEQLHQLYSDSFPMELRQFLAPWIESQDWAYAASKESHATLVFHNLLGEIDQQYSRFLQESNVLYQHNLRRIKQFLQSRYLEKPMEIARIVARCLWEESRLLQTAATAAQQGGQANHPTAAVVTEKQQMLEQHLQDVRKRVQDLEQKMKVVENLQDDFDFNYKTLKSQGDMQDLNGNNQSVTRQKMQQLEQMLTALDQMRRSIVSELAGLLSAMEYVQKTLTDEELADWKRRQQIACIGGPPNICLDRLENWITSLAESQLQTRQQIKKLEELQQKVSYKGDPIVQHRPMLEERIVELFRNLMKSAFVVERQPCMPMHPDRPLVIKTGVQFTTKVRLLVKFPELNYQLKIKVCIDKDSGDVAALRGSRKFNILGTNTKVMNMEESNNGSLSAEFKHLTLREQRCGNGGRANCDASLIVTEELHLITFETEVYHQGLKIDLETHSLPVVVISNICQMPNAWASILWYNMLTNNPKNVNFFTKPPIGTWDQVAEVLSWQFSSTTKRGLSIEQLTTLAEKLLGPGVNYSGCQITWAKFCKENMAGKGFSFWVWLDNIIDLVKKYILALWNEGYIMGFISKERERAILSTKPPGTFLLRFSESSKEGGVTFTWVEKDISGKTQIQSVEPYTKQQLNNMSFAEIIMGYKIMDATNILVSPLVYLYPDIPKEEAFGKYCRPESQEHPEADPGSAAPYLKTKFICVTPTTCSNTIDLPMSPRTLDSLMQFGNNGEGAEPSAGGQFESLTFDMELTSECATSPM

First: CCCOC(=O)[C@H](C)NP(=O)(Cc1ccc2sc(C(=O)N[C@H]3CCC[C@H]4CC[C@@H](C(=O)N5CC(c6cccnc6)C5)N4C3=O)cc2c1)Oc1ccccc1 (stereo partly drawn) [Compound 250, propyl (((2-(((3S,6S,9aS)-5-oxo-3-(3-(pyridin-3-yl)azetidine-1-carbonyl)octahydro-1H-pyrrolo[1,2-a]azepin-6-yl)carbamoyl)benzo [b]thiophen-5-yl)methyl)(phenoxy)phosphoryl)-L-alaninate]
Second: CCCOC(=O)[C@H](C)NP(=O)(Oc1ccccc1)C(F)(F)c1ccc2sc(C(=O)N[C@H]3CCC[C@H]4CC[C@@H](C(=O)N5CC(c6cccnc6)C5)N4C3=O)cc2c1 (stereo partly drawn) [Compound 400, propyl ((difluoro(2-(((3S,6S,9aS)-5-oxo-3-(3-(pyridin-3-yl)azetidine-1-carbonyl)octahydro-1H-pyrrolo[1,2-a]azepin-6-yl)carbamoyl)benzo [b]thiophen-5-yl)methyl)(phenoxy)phosphoryl)-L-alaninate]
The IC50 of the first is lower: less than 100 nM for the first, 100 to 1000 nM for the second.

CCCOC(=O)[C@H](C)NP(=O)(Oc1ccccc1)[C@@H](F)c1ccc2sc(C(=O)N[C@H]3CCC[C@H]4CC[C@@H](C(=O)N5CC(c6cncc(F)c6OC)C5)N4C3=O)cc2c1 (stereo partly drawn) [Compound 1073, propyl (((R)-fluoro(2-(((3S,6S,9aS)-3-(3-(5-fluoro-4-methoxypyridin-3-yl)azetidine-1-carbonyl)-5-oxooctahydro-1H-pyrrolo[1,2-a]azepin-6-yl)carbamoyl)benzo [b]thiophen-5-yl)methyl)(phenoxy)phosphoryl)-L-alaninate] and CCCOC(=O)[C@H](C)NP(=O)(Oc1ccccc1)[C@@H](F)c1ccc2sc(C(=O)N[C@H]3CCC[C@H]4CC[C@@H](C(=O)N5CC(c6cncc(F)c6O)C5)N4C3=O)cc2c1 (stereo partly drawn) [Compound 1060, propyl (((R)-fluoro(2-(((3S,6S,9aS)-3-(3-(5-fluoro-4-hydroxypyridin-3-yl)azetidine-1-carbonyl)-5-oxooctahydro-1H-pyrrolo[1,2-a]azepin-6-yl)carbamoyl)benzo [b]thiophen-5-yl)methyl)(phenoxy)phosphoryl)-L-alaninate] fall in the same range of IC50: 100 to 1000 nM for the first, 100 to 1000 nM for the second.

First: CCCCOC(=O)[C@H](C)NP(=O)(Oc1cccc2ccccc12)C(F)(F)c1ccc2sc(C(=O)N[C@H]3CCC[C@H]4CC[C@@H](C(=O)N5CC(c6cccnc6)C5)N4C3=O)cc2c1 (stereo partly drawn) [Compound 971, butyl ((difluoro(2-(((3S,6S,9aS)-5-oxo-3-(3-(pyridin-3-yl)azetidine-1-carbonyl)octahydro-1H-pyrrolo[1,2-a]azepin-6-yl)carbamoyl)benzo [b]thiophen-5-yl)methyl) (naphthalen-1-yloxy)phosphoryl)-L-alaninate]
Second: CCCCOC(=O)[C@@H]1CCCN1P(=O)(Oc1ccccc1)C(F)(F)c1ccc2sc(C(=O)N[C@H]3CCC[C@H]4CC[C@@H](C(=O)N5CC(c6cccnc6)C5)N4C3=O)cc2c1 (stereo partly drawn) [Compound 969, butyl ((difluoro(2-(((3S,6S,9aS)-5-oxo-3-(3-(pyridin-3-yl)azetidine-1-carbonyl)octahydro-1H-pyrrolo[1,2-a]azepin-6-yl)carbamoyl)benzo [b]thiophen-5-yl)methyl)(phenoxy)phosphoryl)-L-prolinate]
The IC50 of the first is lower: 1000 to 3000 nM for the first, greater than 3000 nM for the second. The first is the more potent here.

Compared with CCCOC(=O)[C@H](C)NP(=O)(Oc1ccccc1)[C@@H](F)c1ccc2sc(C(=O)N[C@H]3CCC[C@H]4CC[C@@H](C(=O)N5CC(c6cncnc6N6CCOCC6)C5)N4C3=O)cc2c1 (stereo partly drawn) [Compound 1066, propyl (((R)-fluoro(2-(((3S,6S,9aS)-3-(3-(4-morpholino-pyrimidin-5-yl)azetidine-1-carbonyl)-5-oxooctahydro-1H-pyrrolo[1,2-a]azepin-6-yl)carbamoyl)benzo [b]thiophen-5-yl)methyl)(phenoxy)phosphoryl)-L-alaninate], CCCOC(=O)[C@H](C)NP(=O)(Oc1ccccc1)[C@@H](F)c1ccc2sc(C(=O)N[C@H]3C[C@@H](C)C[C@H]4CC[C@@H](C(=O)N5CC(c6cncnc6N6CCC6)C5)N4C3=O)cc2c1 (some centres unmarked) [Compound 1077] is lower in IC50: 100 to 1000 nM for the first, less than 100 nM for the second.

CCCOC(=O)[C@H](C)NP(=O)(Cc1ccc2sc(C(=O)N[C@H]3C[C@H](C)C[C@H]4CC[C@@H](C(=O)N5CC(c6cnccc6C)C5)N4C3=O)cc2c1)Oc1ccccc1 (stereo partly drawn) [Compound 283, propyl (((2-(((3S,6S,8S,9aR)-8-methyl-3-(3-(4-methylpyridin-3-yl)azetidine-1-carbonyl)-5-oxooctahydro-1H-pyrrolo[1,2-a]azepin-6-yl)carbamoyl)benzo [b]thiophen-5-yl)methyl)(phenoxy)phosphoryl)-L-alaninate] and CCCOC(=O)[C@H](C)NP(=O)(Cc1ccc2sc(C(=O)N[C@H]3CC[C@@H](C)C[C@H]4CC[C@@H](C(=O)N5CC(c6cnccc6C)C5)N4C3=O)cc2c1)Oc1ccccc1 (stereo partly drawn) [Compound 287, propyl (((2-(((3S,6S,9R,10aR)-9-methyl-3-(3-(4-methylpyridin-3-yl)azetidine-1-carbonyl)-5-oxodecahydropyrrolo [1,2-a]azocin-6-yl)carbamoyl)benzo [b]thiophen-5-yl)methyl)(phenoxy)phosphoryl)-L-alaninate] cannot be ordered by IC50: less than 100 nM for the first, less than 100 nM for the second.

Compared with CCCOC(=O)[C@H](C)NP(=O)(Cc1ccc2sc(C(=O)N[C@H]3CCC[C@H]4CC[C@@H](C(=O)N5CC(c6cccc(C#N)n6)C5)N4C3=O)cc2c1)Oc1ccccc1 (stereo partly drawn) [Compound 289, propyl (((2-(((3S,6S,9aS)-3-(3-(6-cyanopyridin-2-yl)azetidine-1-carbonyl)-5-oxooctahydro-1H-pyrrolo[1,2-a]azepin-6-yl)carbamoyl)benzo [b]thiophen-5-yl)methyl)(phenoxy)phosphoryl)-L-alaninate], CCCOC(=O)[C@H](C)NP(=O)(Cc1ccc2sc(C(=O)N[C@H]3CCC[C@H]4CC[C@@H](C(=O)N5CC(c6c(F)ccnc6C)C5)N4C3=O)cc2c1)Oc1ccccc1 (stereo partly drawn) [Compound 978, propyl (((2-(((3S,6S,9aS)-3-(3-(4-fluoro-2-methylpyridin-3-yl)azetidine-1-carbonyl)-5-oxooctahydro-1H-pyrrolo[1,2-a]azepin-6-yl)carbamoyl)benzo [b]thiophen-5-yl)methyl)(phenoxy)phosphoryl)-L-alaninate] is higher in IC50: less than 100 nM for the first, 100 to 1000 nM for the second.

Compared with CCCOC(=O)[C@H](C)NP(=O)(Oc1ccccc1)[C@@H](F)c1ccc2sc(C(=O)N[C@H]3CCC[C@H]4CC[C@@H](C(=O)N5CC(c6cnccc6F)C5)N4C3=O)cc2c1 (stereo partly drawn) [Compound 994, propyl (((R)-fluoro(2-(((3S,6S,9aS)-3-(3-(4-fluoropyridin-3-yl)azetidine-1-carbonyl)-5-oxooctahydro-1H-pyrrolo[1,2-a]azepin-6-yl)carbamoyl)benzo [b]thiophen-5-yl)methyl)(phenoxy)phosphoryl)-L-alaninate], CCCOC(=O)[C@H](C)N[P@@](=O)(Oc1ccccc1)[C@H](F)c1ccc2sc(C(=O)N[C@H]3C[C@@H](C)C[C@H]4CC[C@@H](C(=O)N5CC(c6cnccc6C)C5)N4C3=O)cc2c1 (single isomer, unassigned) [Compound 1001] is lower in IC50: 100 to 1000 nM for the first, less than 100 nM for the second. The second is the more potent here.

Compared with CCCOC(=O)[C@H](C)NP(=O)(Oc1ccccc1)C(F)c1ccc2sc(C(=O)N[C@H]3CCCC[C@H]4CC[C@@H](C(=O)N5CC(NCC(F)F)(c6ccccn6)C5)N4C3=O)cc2c1 (stereo partly drawn) [Compound 1020, propyl (((2-(((3S,6S,10aS)-3-(3-((2,2-difluoroethyl)amino)-3-(pyridin-2-yl)azetidine-1-carbonyl)-5-oxodecahydropyrrolo [1,2-a]azocin-6-yl)carbamoyl)benzo [b]thiophen-5-yl)fluoromethyl) (phenoxy)phosphoryl)-L-alaninate], CCCOC(=O)[C@H](C)NP(=O)(Oc1ccccc1)[C@@H](F)c1ccc2sc(C(=O)N[C@H]3CCC[C@H]4CC[C@@H](C(=O)N[C@H]5CN(c6ncc[nH]6)C[C@@H]5F)N4C3=O)cc2c1 (stereo partly drawn) [Compound 1030, propyl (((R)-fluoro(2-(((3S,6S,9aS)-3-(((3S,4S)-4-fluoro-1-(1H-imidazol-2-yl)pyrrolidin-3-yl)carbamoyl)-5-oxooctahydro-1H-pyrrolo[1,2-a]azepin-6-yl)carbamoyl)benzo [b]thiophen-5-yl)methyl)(phenoxy)phosphoryl)-L-alaninate] is higher in IC50: less than 100 nM for the first, greater than 3000 nM for the second. The first is the more potent here.

O=C(SCCOP(=O)(OCCSC(=O)c1ccccc1)C(F)(F)c1ccc2sc(C(=O)N[C@H]3CCC[C@H]4CC[C@@H](C(=O)N5CC(c6cccnc6)C5)N4C3=O)cc2c1)c1ccccc1 [Compound 970, S,S′-((((difluoro(2-(((3S,6S,9aS)-5-oxo-3-(3-(pyridin-3-yl)azetidine-1-carbonyl)octahydro-1H-pyrrolo[1,2-a]azepin-6-yl)carbamoyl)benzo [b]thiophen-5-yl)methyl)-phosphoryl)bis(oxy))bis(ethane-2,1-diyl)) dibenzothioate] and COc1ccncc1C1CN(C(=O)[C@@H]2CC[C@@H]3CCC[C@H](NC(=O)c4cc5cc([C@@H](F)[P@](=O)(N[C@@H](C)C(=O)OCc6ccccc6)Oc6ccccc6)ccc5s4)C(=O)N32)C1 (single isomer, unassigned) [Compound 1054] cannot be ordered by IC50: less than 100 nM for the first, less than 100 nM for the second.

CCCOC(=O)[C@H](C)NP(=O)(Cc1ccc2sc(C(=O)N[C@H]3CCC[C@H]4CC[C@@H](C(=O)N5CC(c6cnccc6C6CC6)C5)N4C3=O)cc2c1)Oc1ccccc1 (stereo partly drawn) [Compound 267, propyl (((2-(((3S,6S,9aS)-3-(3-(4-cyclopropylpyridin-3-yl)azetidine-1-carbonyl)-5-oxooctahydro-1H-pyrrolo[1,2-a]azepin-6-yl)carbamoyl)benzo [b]thiophen-5-yl)methyl)(phenoxy)phosphoryl)-L-alaninate] and COc1ccncc1C1CN(C(=O)[C@@H]2CC[C@@H]3CCC[C@H](NC(=O)c4cc5cc([C@@H](F)[P@](=O)(N[C@@H](C)C(=O)OCC(C)(C)C)Oc6ccccc6)ccc5s4)C(=O)N32)C1 (single isomer, unassigned) [Compound 1057] cannot be ordered by IC50: less than 100 nM for the first, less than 100 nM for the second.
